Results reported in patent publication US9649271B2, “Hair thickening compositions and methods of use” (The Procter & Gamble Company, priority 2013, dated 2017).

Experiments:
[1] = Measurement of average thickness increase of single hair fibers
Protocol: The fibers are then removed and allowed to equilibrate and dry overnight. • 4) The next day, the fibers are imaged and measured for a final reading. For each experiment, untreated control and product treatment controls are ran, and at least 5 fibers are measured per treatment. • 5) In order to measure increase in thickness as a function of treatment, the […]. The average thickness increase is reported in the Table above, with measurements reported in micrometers. Viscosity Test Method

[2] = Viscosity test method (cone and plate viscometer/rheometer); type: physicochemical; settings: hair care composition (Example 1 formula) with 0.15% resorcinol of the given type, 1.89% Sepigel
Source text: The viscosity of the hair care composition may be determined by a cone and plate viscometer/rheometer which measures the viscous drag resulting from the sample material contained in the gap between a rotating cone and a stationary plate. The geometry of the cone and plate may be such that the entire sample is subjected to a uniform shear rate.

Structure (SMILES) | average thickness increase compared to Resorcinol Type 2 and Type 3 (in words) ([1]; Example 1 formula, different types of resorcinol substituted) | Average Thickness Increase ([1]; Example 1 formula with 0.15% resorcinol of the given type, 1.89% Sepigel, fibers treated 10 minutes, dried overnight, at least 5 fibers per treatment) [μm] | Viscosity [2] [cps]
Oc1ccc(Cl)c(O)c1 [Resorcinol 1, 4-Chlororesorcinol] | measurable average thickness increase | – | –
Oc1cccc(O)c1 [Resorcinol 3, 1,3-Dihydroxybenzene] | – | 3.5 | 15958
